Key:
[1] = Cumulative body weight change in DIO mice, daily s.c. dosing for nine days (Example 18, FIG. 1); format: in vivo, mice (strain C57Bl6/NTac); conditions: 9 nmol/kg s.c. daily, day 9
Method: Mice were administered a vehicle control or a dose of a peptide daily for nine days. […] The peptide of SEQ ID NO: 9 was administered at doses of 9 and 25 nmol/kg. Cumulative body weight change (grams) was measured each day of the study except on day 3. Results are shown in FIG. 1 and are expressed as mean±SEM.

[2] = Cumulative food intake in DIO mice (Example 20, FIG. 3); conditions: 3 nmol/kg, after 8 days of dosing
Source text: For the studies in Examples 18, 19, 20, and 21, diet induced obesity (DIO) mice (strain C57Bl6/NTac; 20 weeks on a high fat diet, about 47 g) were divided into groups of eight mice per group and the initial average body weight, food intake and basal glucose of each group were matched before peptide administration. Each group of mice was subcutaneously injected daily with a dose of Co-agonist Peptide or vehicle control for 7 to 10 days. The peptides tested in this study were Co-agonist Peptides 1, 2, 3, 4, 5, and 6 (SEQ ID NOs: 6, 7, 8, 9, 10, and 11, respectively) at the doses that varied from 3 nmol/kg to 25 nmol/kg. Body weight, food intake and basal glucose were measured periodically during treatment.

[3] = Second study in DIO mice: body weight change percent relative to vehicle (Example 19, FIG. 2); format: in vivo, mice (strain C57Bl6/NTac); conditions: 3 nmol/kg daily, eight days
Method: In addition, the peptide of SEQ ID NO: 8 was administered at 15 nmol/kg, while the peptide of SEQ ID NOs: 10 and 11 were administered at 3 nmol/kg. Body weight was measured daily for eight days and body weight change is expressed as percent relative to vehicle (FIG. 2).

Question: What does the source list for `CCCCCCCCCCCCCCCC(=O)N[C@@H](CCC(=O)N[C@@H](CCC(=O)NCCCC[C@H](NC(=O)[C@H](CC(=O)O)NC(=O)[C@H](CO)NC(=O)[C@@H](NC(=O)[C@H](Cc1ccccc1)NC(=O)[C@@H](NC(=O)CNC(=O)[C@H](CCC(N)=O)NC(=O)[C@@H](CO)NC(=O)[C@@H](N)Cc1c[nH]cn1)[C@@H](C)O)[C@@H](C)O)C(=O)N[C@@H](CO)C(=O)N[C@@H](CCCCN)C(=O)N[C@@H](Cc1ccc(O)cc1)C(=O)N[C@@H](CC(C)C)C(=O)N[C@@H](CC(=O)O)C(=O)N[C@@H](C)C(=O)N[C@@H](CCCNC(=N)N)C(=O)N[C@@H](C)C(=O)N[C@@H](C)C(=O)N[C@@H](CCC(N)=O)C(=O)N[C@@H](CC(=O)O)C(=O)N[C@@H](Cc1ccccc1)C(=O)N[C@H](C(=O)N[C@@H](CCC(N)=O)C(=O)N[C@@H](Cc1c[nH]c2ccccc12)C(=O)N[C@@H](CC(C)C)C(=O)N[C@@H](CC(C)C)C(=O)N[C@@H](CC(=O)O)C(=O)N[C@H](C(N)=O)[C@@H](C)O)C(C)C)C(=O)O)C(=O)O` [SEQ ID NO: 10]?
Answer: body weight loss [1]: approximately 13 grams; change in food intake vs vehicle [2]: significant suppression of food intake; weight loss, percent relative to vehicle [3]: approximately 17%

Reference: patent US10413593B2 (priority 2014, dated 2019)
